Source: US20210002262A1, “CYANOPYRROLIDINES AS USP30 INHIBITORS AND FIBROSIS TREATMENT” (MISSION THERAPEUTICS LIMITED, priority 2018, published 2021)
pIC50: −log10 of the molar value. Entries after “also recorded” stand apart in the source; their conditions may differ.

Columns and labels:
[1] = target: T1, USP30 (Homo sapiens, UniProt Q70CQ3); assay: USP30 biochemical IC50 assay; settings: Examples of WO 2017/103614
T1 sequence (Q70CQ3 1-517): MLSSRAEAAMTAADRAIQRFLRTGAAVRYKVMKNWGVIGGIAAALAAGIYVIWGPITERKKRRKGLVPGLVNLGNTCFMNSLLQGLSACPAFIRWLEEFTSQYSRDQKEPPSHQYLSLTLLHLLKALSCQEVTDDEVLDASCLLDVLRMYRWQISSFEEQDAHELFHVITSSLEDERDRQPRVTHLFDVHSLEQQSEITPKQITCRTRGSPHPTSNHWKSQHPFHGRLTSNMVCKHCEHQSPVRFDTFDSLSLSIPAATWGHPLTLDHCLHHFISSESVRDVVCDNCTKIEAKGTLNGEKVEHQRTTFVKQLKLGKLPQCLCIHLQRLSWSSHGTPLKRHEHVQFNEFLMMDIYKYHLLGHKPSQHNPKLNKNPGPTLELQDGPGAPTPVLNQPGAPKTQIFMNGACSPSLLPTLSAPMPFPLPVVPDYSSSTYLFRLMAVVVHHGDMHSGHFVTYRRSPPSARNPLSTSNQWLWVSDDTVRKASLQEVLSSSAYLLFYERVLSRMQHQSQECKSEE
Description: Dilution plates were prepared at 21 times the final concentration (2100 μM for a final concentration of 100 μM) in 50% DMSO in a 96-well polypropylene V-bottom plate (Greiner #651201). A typical 8-point dilution series would be 100, 30, 10, 3, 1, 0.3, 0.1, 0.03 μM final. Reactions were performed in duplicate in black 384 well plates (small volume, Greiner 784076) in a final reaction volume of 21 μl. Either 1 μl of 50% DMSO or diluted compound was added to the plate. USP30 was diluted in reaction buffer (40 mM Tris, pH 7.5, 0.005% Tween 20, 0.5 mg/ml BSA, 5 mM beta-mercaptoethanol) to the equivalent of 0.05 μl/well and 10 μl of diluted USP30 was added to the compound. Enzyme and compound were incubated for 30 min at room temp. Reactions were initiated by the addition of 50 nM of TAMRA labelled peptide linked to ubiquitin via an iso-peptide bond as fluorescence polarisation substrate. Reactions were read immediately after addition of substrate and following a 2-hour incubation at room temperature. Readings were performed on a Pherastar Plus (BMG Labtech). λ Excitation 540 nm; λ Emission 590 nm.

[2] = test system: Unilateral ureteral obstruction (UUO) kidney fibrosis; assay: Unilateral ureteral obstructive kidney disease model (UUO); format: in vivo; settings: for In life mortality / collagen (picrosirius red staining): UUO
Text: In this study, adult C57B16 female mice at 7 to 8 weeks of age with average weight of around 18 to 20 g were used. To complete the ureteral obstruction, the abdominal cavity was exposed via a midline incision and the left ureter was ligated at two points with 4-0 silk and dissected. Successful unilateral ureteral obstruction was later confirmed by observation of dilation of the renal pelvis due to hydronephrosis.
At harvest, mice were anesthetised and both kidneys were harvested; the contralateral kidney serves as control for the UUO kidney. The kidneys were dissected along median line into two parts, of which one side was fixed in formaldehyde, for paraffin embedding and the other was snap frozen for protein or RNA isolation.
Formalin fixed tissue were embedded in paraffin blocks and cut into 5 μm sections. All damaged kidneys, 5 contralateral kidneys from each group and 3 sham kidneys were analysed (in total n=80 kidney samples). Picrosirius Red and α-SMA stain was performed to evaluate fibrotic changes and myofibroblast activation. Analysis was performed by a pathology trained technical staff member, without knowledge of the animal group assignment. High magnification images were taken of each slide an analysed for the surface area covered by the stain.

[3] = test system: diet-induced NAFLD/NASH; assay: Diet-induced model of NAFLD/NASH; format: in vivo, mice; settings: 8 weeks
Description: Mice were fed Amylin-diet (D09100301, Research Diets, US; 40% fat (18% trans-fat), 40% carbohydrate (20% fructose) and 2% cholesterol) for 37 weeks. Liver biopies were harvested and mice were randomization into treatment groups based on liver Colla1 quantification. Three weeks following biopsy surgery, study animals were dosed orally (P.O.) with either; Vehicle (0.5% HPMC/0.5% PVP/0.1% SDS nanosuspension), MT#1 @ 15 mg/kg QD or MT#1 @ […] QD […] or with Elafibranor @ 30 mg/kg QD (positive control) for eight (8) weeks. A control group of age- and sex-matched mice fed lean chow diet ad libitum were also administered vehicle (P.O) over the same 8 (eight) week period. Following the full dosing schedule, mice were sacrificed, whole livers resected and weighed, fixed in paraformaldehyde before being paraffin embedded. H&E stained slides were then prepared and the average % fractional area of lipid vacuoles (steatosis) determined for each section (@ 20×objective) using Visiomorph software (Visophram, Denmark). The average % fractional area was multiplied by the total liver weight to determine the total liver lipid content per animal. Values expressed as mean of n=9-12+SEM. Dunnett's test one-factor linear model. **: P<0.01, ***: P<0.001 compared to DIO-NASH Vehicle.
Summary of fibrosis stage scores of pre- and post-study liver biopsies harvested from the diet-induced NAFLD/NASH study. Fibrosis stage scores are determined by assessment of picosirius red stained liver sections for relative appearance and location of collagen staining, where; 0=No staining, 1=Perisinusoidal or periportal, 2=Perisinusoidal and periportal and […]=Bridging collagen staining observed. For each group of animals with higher (worsening), same or lower (improvement) in score at post-compared to pre-study is indicated by the height of the bar. One-sided Fisher's exact test with Bonferroni correction. No differences at significance level 0.05.

[4] = test system: Bleomycin-induced lung fibrosis; assay: Bleomycin-induced lung fibrosis model; settings: for In life mortality: oral, days 7 to 21, bleomycin 1.5 U/kg
Description: Treatment group animals (n=10/group) received 1.5 U/kg of clinical bleomycin via oropharyngeal route on day 0 under inhalant anaesthesia. Animals were monitored for tolerance of the bleomycin administration procedure and subsequently bodyweights of all mice were recorded at least 3 times per week during the study. […] All treatments were administered orally.
At day 21, lungs were harvested from each animal and weighed, followed by fixation in 10% neutral buffered formalin (NBF) for histopathological analysis. The lung samples were processed and embedded with all lobes from each mouse in one paraffin block. Coronal sections through the four major lobes were stained with Masson's Trichrome. For each animal, consecutive lung fields were examined at 200×magnification in a raster pattern using a 20×objective lens and a 10×ocular lens. […] The Fibrotic Index was calculated as the sum of the modified Ashcroft field scores divided by the number of fields examined.

**Q.** How did the pIC50 [1] turn out when N#Cc1cccc(-c2nnc(C(=O)NC[C@H]3CCN(C#N)C3)o2)c1 [Example 68, (R)-5-(3-cyanophenyl)-N-((1-cyanopyrrolidin-3-yl)methyl)-1,3,4-oxadiazole-2-carboxamide] was run?
**A.** The pIC50 was over 8.00.

**Q.** And the In life mortality ([2]; 5 mg/kg MT#1 nanosuspension BID PO, days 0 to 10)?
**A.** Its In life mortality is 10%.

**Q.** And the “collagen (picrosirius red staining)” value ([2]; 15 mg/kg BID MT#1)?
**A.** Its value is “Statistically significant decreases”.

**Q.** And the In life mortality ([2]; 15 mg/kg MT#1 nanosuspension BID PO, days 0 to 10)?
**A.** The In life mortality was 0%.

**Q.** What about the “collagen (picrosirius red staining)” value ([2]; 50 mg/kg BID MT#1) of the same molecule?
**A.** The value was “Statistically significant decreases”.

**Q.** And the In life mortality ([2]; 50 mg/kg MT#1 nanosuspension BID PO, days 0 to 10)?
**A.** Its In life mortality is 10%.

**Q.** What about the “collagen deposition as measured by picrosirius red staining” value ([2]; UUO, 5, 15, 50 mg/kg BID PO, days 0 to 10) of the same molecule?
**A.** The value was “dose dependent decrease”.

**Q.** What about the “total liver lipid content, reduction” value ([3]; NASH animals, MT#1 15 mg/kg BID (P.O.), compared to DIO-NASH Vehicle) of the same molecule?
**A.** Its value is “statistically significant”.

**Q.** What about the “total liver lipid content” value ([3]; NASH animals, P.O., dose dependence) of the same molecule?
**A.** Its value is “dose-dependent reduction”.

**Q.** What about the liver steatosis ([3]; diet-induced NAFLD/NASH, P.O., Elafibranor 30 mg/kg QD) of the same molecule?
**A.** The liver steatosis was “statistically significant reduction”.

**Q.** And the “fibrotic stage scores (picosirius red stained liver sections, post- compared to pre-study biopsy)” value ([3]; diet-induced NAFLD/NASH, P.O., Elafibranor 30 mg/kg QD, listed as MT#1)?
**A.** The value was “Neither MT#1 or Elafibranor (positive control) significantly improved; also recorded: did not significantly improve”.

**Q.** And the In life mortality ([4]; 5 mg/kg MT#1 nanosuspension BID)?
**A.** Its In life mortality is 10%.

**Q.** What about the In life mortality ([4]; 15 mg/kg MT#1 nanosuspension BID) of the same molecule?
**A.** Its In life mortality is 10%.

**Q.** And the “fibrosis as assessed by the modified Ashcroft score, effect compared to vehicle” value ([4]; 50 mg/kg BID oral, one-way ANOVA + Tukey)?
**A.** Its value is “statistically significant effect compared to vehicle”.

**Q.** And the In life mortality ([4]; 50 mg/kg MT#1 nanosuspension BID)?
**A.** The In life mortality was 0%.

**Q.** And the “fibrosis as assessed by the modified Ashcroft score (collagen deposition, septae thickening)” value ([4]; dose ranging 5, 15, 50 mg/kg BID oral, days 7 to 21, harvest day 21)?
**A.** The value was “dose dependent reduction”.
